Results taken from patent publication US9469615B2, “Quinoxalines and AZA-quinoxalines as CRTH2 receptor modulators” (Merck Sharp & Dohme Corp., priority 2010, dated 2016).

Target: T1, hCRTH2 (Homo sapiens, UniProt Q9Y5Y4)
T1 construct: expressed in transfected cells; host or cells: HEK (human embryonic kidney) cells expressing hCRTH2; membrane preparation
T1 sequence (Q9Y5Y4 1-395): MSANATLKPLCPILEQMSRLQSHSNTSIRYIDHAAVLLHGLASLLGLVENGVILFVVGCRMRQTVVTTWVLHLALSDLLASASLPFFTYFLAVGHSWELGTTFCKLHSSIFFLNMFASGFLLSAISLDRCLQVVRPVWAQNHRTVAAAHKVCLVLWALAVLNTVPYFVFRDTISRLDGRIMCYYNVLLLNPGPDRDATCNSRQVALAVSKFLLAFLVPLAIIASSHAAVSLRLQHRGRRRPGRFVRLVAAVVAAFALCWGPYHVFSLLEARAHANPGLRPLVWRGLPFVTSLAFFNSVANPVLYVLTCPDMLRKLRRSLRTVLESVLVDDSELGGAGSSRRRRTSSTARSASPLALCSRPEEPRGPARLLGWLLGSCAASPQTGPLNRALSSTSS
Experiment: Radioligand binding assay ([3H]PGD2 competition, HEK-hCRTH2 membranes)
Conditions: [3H]PGD2 competition, Table B
Outline: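 Membranes (8-20 μg protein) from HEK-hCRTH2 cells were incubated 60 min at room temperature with 3.0 nM [3H]PGD2 in 50 mM Tris-HCl pH 7.4, 1 mM EDTA, 2 mM MnCl2, 1% DMSO. Non-specific binding defined with 10 μM PGD2. Bound radioactivity counted after filtration.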

Ki [nM]	Compound
2.1 to 20	COc1ccc2c(c1)CCCC2NC(=O)c1ccc2nc(-c3ccc(Cl)cc3)c(CCCCC(=O)O)nc2c1 (stereo not shown) [compound 312, 5-(3-(4-chlorophenyl)-7((6-methoxy-1,2,3,4-tetrahydronaphthalen-1-yl)carbamoyl)quinoxalin-2-yl)pentanoic acid]
2.1 to 20	O=C(O)CCCCc1nc2cc(C(=O)N[C@H]3COc4cc(F)ccc43)ccc2nc1-c1ccc(Cl)cc1 [compound 313, (R)-5-(3-(4-chlorophenyl)-7-((6-fluoro-2,3-dihydrobenzofuran-3-yl)carbamoyl)quinoxalin-2-yl)pentanoic acid]
2.1 to 20	O=C(O)CCCCc1nc2cc(C(=O)N[C@@H]3COc4cc(F)ccc43)ccc2nc1-c1ccc(Cl)cc1 [compound 314, (S)-5-(3-(4-chlorophenyl)-7-((6-fluoro-2,3-dihydrobenzofuran-3-yl)carbamoyl)quinoxalin-2-yl)pentanoic acid]
2.1 to 20	CN1C(=O)CC(NC(=O)c2ccc3nc(-c4ccc(Cl)cc4)c(CCCCC(=O)O)nc3c2)c2ccccc21 (stereo not shown) [compound 315, 5-(3-(4-chlorophenyl)-7-((1-methyl-2-oxo-1,2,3,4-tetrahydroquinolin-4-yl)carbamoyl)quinoxalin-2-yl)pentanoic acid]
2.1 to 20	O=C(O)CCCCc1nc2cc(C(=O)N3CCC(N4Cc5ccccc5C4=O)CC3)ccc2nc1-c1ccc(Cl)cc1 [compound 316, 5-(3-(4-chlorophenyl)-7-(4-(1-oxoisoindolin-2-yl)piperidine-1-carbonyl)quinoxalin-2-yl)pentanoic acid]
2.1 to 20	O=C(O)CCCCc1nc2cc(C(=O)NCC3(c4ccc(OC(F)(F)F)cc4)CC3)ccc2nc1-c1ccc(Cl)cc1 [compound 317, 5-(3-(4-chlorophenyl)-7-(((1-(4-(trifluoromethoxy)phenyl)cyclopropyl)methyl)carbamoyl)quinoxalin-2-yl)pentanoic acid]
2.1 to 20	O=C(O)CCCCc1nc2cc(C(=O)NCC3(c4ccc(F)cc4)CC3)ccc2nc1-c1ccc(Cl)cc1 [compound 318, 5-(3-(4-chlorophenyl)-7-(((1-(4-fluorophenyl)cyclopropyl)methyl)carbamoyl)quinoxalin-2-yl)pentanoic acid]
2.1 to 20	O=C(O)CCCCc1nc2cc(C(=O)NC3NC(=O)c4ccccc43)ccc2nc1-c1ccc(Cl)cc1 (stereo not shown) [compound 319, 5-(3-(4-chlorophenyl)-7((3-oxoisoindolin-1-yl)carbamoyl)quinoxalin-2-yl)pentanoic acid]
2.1 to 20	O=C(O)CCCCc1nc2cc(C(=O)N[C@@H]3CCS(=O)(=O)c4ccccc43)ccc2nc1-c1ccc(Cl)cc1 [compound 320, (R)-5-(3-(4-chlorophenyl)-7-((1,1-dioxidothiochroman-4-yl)carbamoyl)quinoxalin-2-yl)pentanoic acid]
2.1 to 20	C[C@H](NC(=O)c1ccc2nc(-c3ccc(Cl)cc3)c(CCCCC(=O)O)nc2c1)c1cncc2ccccc12 [compound 321, (S)-5-(3-(4-chlorophenyl)-7-((1-(isoquinolin-4-yl)ethyl)carbamoyl)quinoxalin-2-yl)pentanoic acid]
2.1 to 20	C[C@H](NC(=O)c1ccc2nc(-c3ccc(Cl)cc3)c(CCCCC(=O)O)nc2c1)c1cccc2ncccc12 [compound 322, (S)-5-(3-(4-chlorophenyl)-7-((1-(quinolin-5-yl)ethyl)carbamoyl)quinoxalin-2-yl)pentanoic acid]
2.1 to 20	O=C(O)CCCCc1nc2cc(C(=O)N3CC(OCc4ccccc4)C3)ccc2nc1-c1ccc(Cl)cc1 [compound 323, 5-(7-(3-(benzyloxy)azetidine-1-carbonyl)-3-(4-chlorophenyl)quinoxalin-2-yl)pentanoic acid]
2.1 to 20	O=C(O)CCCCc1nc2cc(C(=O)N3CC(n4cccn4)C3)ccc2nc1-c1ccc(Cl)cc1 [compound 324, 5-(7-(3-(1H-pyrazol-1-yl)azetidine-1-carbonyl)-3-(4-chlorophenyl)quinoxalin-2-yl)pentanoic acid]
20.1 to 200	O=C(O)CCCCc1nc2cc(C(=O)N3CC(n4ccnc4)C3)ccc2nc1-c1ccc(Cl)cc1 [compound 325, 5-(7-(3-(1H-imidazol-1-yl)azetidine-1-carbonyl)-3-(4-chlorophenyl)quinoxalin-2-yl)pentanoic acid]
2.1 to 20	O=C(O)CCCCc1nc2cc(C(=O)N3CC(c4nc(-c5ccncc5)no4)C3)ccc2nc1-c1ccc(Cl)cc1 [compound 326, 5-(3-(4-chlorophenyl)-7-(3-(3-(pyridin-4-yl)-1,2,4-oxadiazol-5-yl)azetidine-1-carbonyl)quinoxalin-2-yl)pentanoic acid]
20.1 to 200	O=C(O)CCCCc1nc2cc(C(=O)N3CC(n4cnnc4)C3)ccc2nc1-c1ccc(Cl)cc1 [compound 327, 5-(7-(3-(4H-1,2,4-triazol-4-yl)azetidine-l-carbonyl)-3-(4-chlorophenyl)quinoxalin-2-yl)pentanoic acid]
2.1 to 20	O=C(O)CCCCc1nc2cc(C(=O)N3CC(F)(c4ccccc4)C3)ccc2nc1-c1ccc(Cl)cc1 [compound 328, 5-(3-(4-chlorophenyl)-7-(3-fluoro-3-phenylazetidine-1-carbonyl)quinoxalin-2-yl)pentanoic acid]
2.1 to 20	O=C(O)CCCCc1nc2cc(C(=O)N3CC(Oc4ccccn4)C3)ccc2nc1-c1ccc(Cl)cc1 [compound 329, 5-(3-(4-chlorophenyl)-7-(3-(pyridin-2-yloxy)azetidine-1-carbonyl)quinoxalin-2-yl)pentanoic acid]
2.1 to 20	CN(C)c1cccc(-c2nc3ccc(C(=O)N[C@@H]4CCCc5ccccc54)cc3nc2CCCCC(=O)O)c1 [compound 330, (R)-5-(3-(3-(dimethylamino)phenyl)-7-((1,2,3,4-tetrahydronaphthalen-1-yl)carbamoyl)quinoxalin-2-yl)pentanoic acid]
2.1 to 20	O=C(O)CCCCc1nc2cc(C(=O)NC3CSc4ccccc43)ccc2nc1-c1ccc(Cl)cc1 (stereo not shown) [compound 331, 5-(3-(4-chlorophenyl)-7-((2,3-dihydrobenzo[b]thiophen-3-yl)carbamoyl)quinoxalin-2-yl)pentanoic acid]
2.1 to 20	N#Cc1ccc2c(c1)OCC[C@H]2NC(=O)c1ccc2nc(-c3ccc(Cl)cc3)c(CCCCC(=O)O)nc2c1 [compound 332, (R)-5-(3-(4-chlorophenyl)-7-((7-cyanochroman-4-yl)carbamoyl)quinoxalin-2-yl)pentanoic acid]
2.1 to 20	N#Cc1ccc2c(c1)OCC[C@@H]2NC(=O)c1ccc2nc(-c3ccc(Cl)cc3)c(CCCCC(=O)O)nc2c1 [compound 333, (S)-5-(3-(4-chlorophenyl)-7-((7-cyanochroman-4-yl)carbamoyl)quinoxalin-2-yl)pentanoic acid.]
2.1 to 20	O=C(O)CCCCc1nc2cc(C(=O)N[C@@H]3CCOc4cc(Cl)ccc43)ccc2nc1-c1ccc(Cl)cc1 [compound 334, (R)-5-(7-((7-chlorochroman-4-yl)carbamoyl)-3-(4-chlorophenyl)quinoxalin-2-yl)pentanoic acid]
2.1 to 20	O=C(O)CCCCc1nc2cc(C(=O)N[C@H]3CCOc4cc(Cl)ccc43)ccc2nc1-c1ccc(Cl)cc1 [compound 335, (S)-5-(7-((7-chlorochroman-4-yl)carbamoyl)-3-(4-chlorophenyl)quinoxalin-2-yl)pentanoic acid]
20.1 to 200	CN(C(=O)c1ccc2nc(-c3ccc(Cl)cc3)c(CCCCC(=O)O)nc2c1)C1NC(=O)c2ccccc21 (stereo not shown) [compound 336, 5-(3-(4-chlorophenyl)-7-(methyl(3-oxoisoindolin-1-yl)carbamoyl)quinoxalin-2-yl)pentanoic acid]
